From article PMC11187126, “Structure and dynamics of the pyroglutamylated RF-amide peptide QRFP receptor GPR103” (Nature Communications, 2024)
Like-named read-outs stand apart in the source and are kept apart here. No end group written: not given here.

Molecular target: T1, GPR103 Q318^7.39A (Homo sapiens, UniProt Q96P65, Q318A)
T1 construct: we used human full-length QRFPR-encoding plasmids; expressed in transfected cells; host or cells: HEK293 cells (HEK293A in the flow cytometry section), pCAGGS vector
T1 sequence (Q96P65 1-431 Q318A): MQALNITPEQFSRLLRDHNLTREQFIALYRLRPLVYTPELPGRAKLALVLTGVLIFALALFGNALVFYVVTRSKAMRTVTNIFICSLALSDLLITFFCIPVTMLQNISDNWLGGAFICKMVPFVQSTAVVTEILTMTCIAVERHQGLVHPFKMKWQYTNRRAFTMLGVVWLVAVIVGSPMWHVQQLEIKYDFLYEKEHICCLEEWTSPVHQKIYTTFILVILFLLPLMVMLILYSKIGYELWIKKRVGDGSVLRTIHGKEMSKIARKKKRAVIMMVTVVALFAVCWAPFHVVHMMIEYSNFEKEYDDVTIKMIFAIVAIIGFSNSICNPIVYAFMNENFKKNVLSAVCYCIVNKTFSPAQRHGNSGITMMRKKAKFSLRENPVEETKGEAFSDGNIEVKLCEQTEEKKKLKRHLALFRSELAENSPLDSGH
Assay: TGFα shedding assay; Exp. level WT (1:50)
Type: cell-based
Protocol: For the TGFα shedding assay and the flow cytometry analysis, we used human full-length QRFPR-encoding plasmids. Specifically, GPR103 was N-terminally modified with an HA signal sequence followed by a FLAG epitope and then a flexible linker ([…]; the FLAG epitope is underlined) and inserted into the pCAGGS vector. Plasmid encoding GPR103 mutants were generated using Quickchange Site-Directed Mutagensis kit (Agilent).
The TGFα shedding assay was performed as described previously with minor modifications. Plasmid transfection was performed in a 6-well plate with a mixture of 500 ng (per well in a 6-well plate) AP-TGFα-encoding plasmid and 200 ng GPR103-encoding plasmid. After 1-day culture, the transfected cells were harvested by trypsinization, pelleted by centrifugation at 190 × g for 5 min, and washed once with 5 mM HEPES (pH 7.4)-containing Hank’s Balanced Salt Solution (HBSS). After centrifugation, the cells were resuspended in 8 mL of the HEPES-containing HBSS. The cell suspension was seeded in a 96-well culture plate (cell plate) at a volume of 90 μL (per well hereafter) and incubated in a 37 °C incubator with 5% CO2 for 30 min. […] After spinning the cell plates at 190 × g for 2 min, 80 μL of conditioned media was transferred to an empty 96-well plate (conditioned media (CM) plate). Then, 80 μL of AP reaction solution (10 mM p-nitrophenylphosphate (p-NPP), 120 mM Tris-HCl (pH 9.5), 40 mM NaCl, and 10 mM MgCl2) was dispensed into the cell plates and the CM plates. Absorbance at 405 nm of the plates was measured using a microplate reader (SpectraMax 340 PC384, Molecular Devices) before and after 1-h incubation at room temperature. Ligand-induced AP-TGFα release was calculated by subtracting spontaneous AP-TGFα release signal from ligand-induced AP-TGFα release signal. The AP-TGFα release signals were fitted to a four-parameter sigmoidal concentration–response curve, using the Prism 10 software (GraphPad Prism). For each replicate experiment, the pEC50 parameter (negative logarithmic values of EC50 values) of the individual GPR103 mutants were normalized to that of the wild-type GPR103 performed in parallel, and resulting ∆pEC50 values were used to denote ligand response activity of the mutants. […]
Exp. le vel: WT (1:5 0)Exp. le vel: WT (1:5 0)Exp. le vel: WT (1:5 0)Exp. le vel: WT (1:2 0)Exp. le vel: WT (1:2 0)Exp. le vel: WT (1:1 0) […]
L1 4N - t e r mA F2 5N - t e r mA I 2 6N - t e r mA Y 2 9N - t e r mA C 9 82 .5 7A T10 22 .6 1A Exp . l eve l: WT (1 :5)Exp . l evel : >WT (1 :1)Exp. le vel: WT (1:2 0)Exp. le vel: WT (1:2 0)Exp. le vel: WT (1:5 0)Exp . l eve l: WT (1 :1) […]
Exp. le vel: WT (1:1 0)Exp. le vel: WT (1:2 0) C 1 1 83 .2 5AExp. le vel: WT (1:5 0)Exp. le vel: WT (1:5 0)Exp. le vel: WT (1:2 0)Exp . l eve l: WT (1 :5) […]
Exp. le vel: WT (1:5 0)Exp. le vel: WT (1:1 0)Exp. le vel: WT (1:5 0) E203ECL2AExp . l evel : >WT (1 :1)Exp. le vel: WT (1:5 0)Exp. le vel: WT (1:5 0) […]
Exp . l eve l: WT (1 :1) F28Exp. le vel: WT (1:5 0) C 2 8 56 .4 7AExp. le vel: WT (1:2 0) WExp. le vel: WT (1:2 0) F28Exp. le vel: WT (1:5 0)Exp . l evel : >WT (1 :1) […]
Exp. le vel: WT (1:5 0)Exp. le vel: WT (1:5 0) C 3 2 77 .4 8AExp . l eve l: WT (1 :5)Exp . l evel : >WT (1 :1)Exp . l evel : >WT (1 :1) […]
Suppl eme nt ary Figure 1 | Mutational analysis of GPR103. […]
mutants. Data are presented as mean values ± SEM, normally n=3-5; dots), each performed in triplicate. b-d Cell-surface expression (b) and QRFP26-in-duced activation of GPR103 (c, d) were analyzed by the flow cytometry and the TGFα shedding assay, respectively. From the concentration–response curves (a), Emax (c) and ΔpEC50 (d) values relative to the wild type were calculated. Colors in the mutant bars indicate an expression level matching to that of titrated wild type. Statistical analyses were performed using the ordinary one-way ANOVA followed by Dunnett tests with the expression-matched […]

Substance TSGPLGNLAEELNGYSRKKGGFSFRF-NH2 [QRFP26] has an Emax (Exp. #1) of 14.85 % WT, an Emax (Exp. #2) of 10.08 % WT and an Emax (Exp. #3) of 10.26 % WT. It also gave an Emax (mean, read-out: Emax) of 11.7%, an EC50 (n = 3) of 85.1 nM and an Emax (n = 3, read-out: Emax) of 11.7 ± 1.3%.
